Source: US9914698B2, “Stearoyl amino acid salt and preparation method and application thereof” (Shanghai Jiaotong University School of Medicine, priority 2014, dated 2018)
Where two headings read alike, the source gives them in different places. Marks after values point to notes of the source that are not given here.

Key:
[1] = Absorption kinetics after intragastric administration; assay type: in vivo; settings: both sexes, Sprague-Dawley (SD), rat, blood; SD rats, oral 200 mg/kg
Protocol: Ten SD rats weighing 150-180 g were randomly divided into two groups, each comprising five, with males and females combined. After intragastric administration of 200 mg/kg of saline solution containing NsTyr and NsTyr-2K, the average blood concentration-time curve thereof was respectively shown in FIG. 2.

[2] = Equilibrium solubility, shake-flask method; assay type: physicochemical
Protocol: (§1) The shake-flask method was used to test the equilibrium solubility of NsTyr, NsTyr-2K, NsTyr-2Na in water at 37° C. […] The apparent lipid-water distribution coefficient log p of NsTyr-2K, NsTyr-2Na was respectively 1.512 and 1.477. Under different pHs, see Table 1 for the equilibrium solubility test data of NsTyr-2K, NsTyr-2Na; and see Table 2 for the apparent lipid-water distribution coefficient of NsTyr-2K and NsTyr-2Na.

[3] = Apparent lipid-water distribution coefficient; assay type: physicochemical
Protocol: as §1

[4] = Stability assessment (influencing factors, acceleration and long-term tests, Chinese Pharmacopoeia 2010); assay type: physicochemical; settings: high temperature, high humidity, strong light
Protocol: Considering that prototype drug stearoyl amino acid tend to absorb moisture, cake and become yellowish during long-term storage, the stearoyl amino acid is now converted into a form of active salt thereof. And the stability of NsTyr-2K and NsTyr-2Na was tested as required for bulk pharmaceutical chemicals according to the People's Republic of China Pharmacopoeia 2010.

[5] = test system: APP/PS1/TAU transgenic mice; experiment: Open-field test; assay type: in vivo
Excerpt: (§2) Materials for open-field test: a spontaneous activity watch box (80×80×30), on top of which is furnished with a fluorescent lamp as a lighting system, and on the center of whose roof is a CCD camera connected to the computer; and an ethological computer image analysis system (SHANGHAI MOBILEDATUM TECH INFORMATION CO. LTD).
(§3) Laboratory animals: C57BL/6I (from Jackson Lab) (APP/PS1/TAU transgenic mice) in C57BL/6J (TAU transgenic mice). All APP/PS1/TAU transgenic mice and TAU transgenic mice belong to the mouse disease model as for Alzheimer's disease.
(§4) [1] Priscila Cagni, Mrilia Barros. Cannabinoid type I receptor ligands WIN 55,212-2 and AM251 alter anxiety-like behaviors of marmoset monkeys in an open-field test. Behavioural Brain Research 2013; 240:91-94.
(§5) Principles: Open-field test is useful for evaluation of mouse anxiety and behavior probing the outside world. By nature mice are capable of both exploring the unknown territory and protecting themselves from damage due to external potential risks. Open-field test, therefore, can test such mouse capabilities by recording their duration of stay at the marginal area and the central area (where anxiety occurs) in an open field. Meanwhile, the test as such can also measure mouse movement capabilities such as speed.

TAU transgenic mice [6] = experiment: Open-field test; assay type: in vivo; settings: medium-dose (30 mg/kg) and high-dose (45 mg/kg)
Excerpt: as §2, §3, §4, §5

[7] = test system: APP/PS1/TAU transgenic mice; experiment: High plus maze test; assay type: in vivo; settings: different doses
Excerpt: (§6) Materials for high plus maze: consisting of two opening arms opposite to each other and two closing arms opposite to each other, a central platform connecting the aforesaid arms, and a short, 1-cm-high damper along the edges of the opening arms (to prevent animals from slipping off the maze in the process of exploring), with the floors of the four arms and the central platform being black; the floor of the maze adjusted to be 50 cm away from the laboratory ground; and an ethological computer image analysis system (SHANGHAI MOBILEDATUM TECH INFORMATION CO. LTD).
as §3
(§7) Principles: With a couple of opening arms and another couple of closing arms, the high plus maze is useful for assessment of animal anxiety by taking advantage of animal tendency to explore a new extraneous environment as well as their fear of high and open extending arms, which form a behavioral conflict. Rodents tend to move within closing arms due to their fondness of dark, but will, out of curiosity, go into opening arms and move around there. When stimulated by a novel environment, they will engender an impulse to explore and a fear at the same time.

TAU transgenic mice [8] = experiment: High plus maze test; assay type: in vivo
Excerpt: as §6, §3, §7

[9] = test system: APP/PS1/TAU transgenic mice; experiment: Morris water maze test (place navigation and spatial probe); assay type: in vivo
Excerpt: (§8) Materials for water maze test: a constant-temperature swimming pool, a platform for mice, and an ethological computer image analysis system (SHANGHAI MOBILEDATUM TECH INFORMATION CO. LTD).
as §3
(§9) Principles: Morris water maze test programs comprise two parts: place navigation test and spatial probe test. The former lasted a few days; each day mice were respectively put into water from four entries several times, and the time they spent seeking the platform hidden underwater (escape latency) was recorded. When place navigation test ended, the platform was removed. The latter recorded the mouse swimming trajectory after the mice were put into water from any chosen entry, and assessed their previous memory of the platform.

TAU transgenic mice [10] = experiment: as above; assay type: in vivo
Excerpt: as §8, §3, §9

[11] = test system: APP/PS1 TAU transgenic mouse; experiment: Rota rod test; assay type: in vivo, mice; settings: high-dose
Excerpt: Materials for rota rod test: rotary rod type fatigue tester YLS-4C (SHANGHAI MOBILEDATUM TECH INFORMATION CO. LTD).
as §3
Principles: Rota rod is useful for studying the effects of drugs upon movement coordination and fatigue resistance.

obese mouse model [12] = experiment: Administration test in obese mouse model (weight, food intake); assay type: in vivo, C57BL/6 mice
Protocol: 2. Method: 60 C57BL/6 mice (aged 3 weeks, male, with a weight of 8.3 g each) were adaptively fed with 12% kcal normal diet for one week, and randomly divided into 6 groups, each consisting of 10 mice. One group (ND) continued to be fed with normal diet, the rest five groups (HFD I˜V) were fed with 45% kcal high-fat diet.
In the whole test process the mice kept raised in the following environment: temperature: 23±3° C.; humidity: 50±5%; bright and dim alternating cycle: 12 h/12 h; freely available to diet and drinking water in the whole process.
2. Method: ND and HFD I were respectively taken as normal and high-fat diet blank control groups, and were treated with 0.5% sodium carboxymethyl cellulose solution (5 ml/kg/day); HFD II˜IV were taken as groups of recipients, and were treated with NST-2K (20, 60, 100 mg/kg/day); HFD V was taken as a positive control group, and treated with Orlistat (100 mg/kg/day). All the above drugs dissolved in aqueous solution of 0.5% sodium carboxymethyl cellulose and were administered. The administration remained four weeks. In each week average weight and food intake were kept in record until the phase of administration ended.

obese mouse model [13] = experiment: Collection and observation of fat and liver tissues of obese mice; assay type: in vivo, C57BL/6 mice; settings: 100 mg/kg/day
Excerpt: 2. Method: After administration test in Embodiment 8, the mice were denied food overnight. Their abdominal cavity was opened to observe abdominal fat content in each group of the mice. Epididymal fat, perirenal fat and liver were separated and weighed.

obese mouse model [14] = experiment: H&E staining of fat and liver tissue of obese mice; assay type: in vivo, C57BL/6 mice
Protocol: 2. Method: Epididymal fat and liver were fixed in 10% neutral formaldehyde solution for 48 h. After paraffin embedding they were made into […] of slices, and stained with hematoxylin-eosin (H&E staining). Light microscope was used to observe the size of fat cells, the structure of liver cells and adipose accumulation.

[15] = test system: gerbil model with global ischemia reperfusion injury; experiment: Neurobehavioral scores of acute cerebral ischemia reperfusion model; assay type: in vivo; settings: positive control group, dose not given; ischemic model group 3.1+/−0.32
Excerpt: Taking N-stearoyl amino acid potassium NsTyr-2K as an example, a gerbil model with global ischemia reperfusion injury was used to assess the protective role of NsTyr-2K against neurobehavioral disorder caused by cerebral ischemia-reperfusion injury by examining the changing behavioral indexes such as spatial, learning and cognitive functions in the perspective of overall animals during passive dark avoidance test and Morris water maze test.

[16] = day 5, medium-dose and high-dose group, *P<0.05

CCCCCCCCCCCCCCCCCC(=O)N[C@@H](Cc1ccc(O)cc1)C(=O)O [NsTyr, N-stearoyl tyrosine]
AUC(0-inf) [1]: 140 ng·h/mL | AUC(0-t) [1]: 130 ng·h/mL | Cmax [1]: 110 ng/mL | MRT last [1]: 1.38 h | Tmax [1]: 0.75 h | half-life [1]: 1.49 h | solubility thermodynamic ([2]; thermodynamic from solid, water, 37° C., read-out: equilibrium solubility in water): < 1000 µg/mL

CCCCCCCCCCCCCCCCCC(=O)N[C@@H](Cc1ccc(O)cc1)C(=O)[O-].CCCCCCCCCCCCCCCCCC(=O)N[C@@H](Cc1ccc(O)cc1)C(=O)[O-].[Na+].[Na+] [NsTyr-2Na]
Apparent lipid-water distribution coefficient LogP [3]: 1.477 | Apparent lipid-water distribution coefficient Ko/w ([3]; buffer pH 2.0): 49.913 | Apparent lipid-water distribution coefficient LogP ([3]; buffer pH 2.0): 1.698 | Apparent lipid-water distribution coefficient Ko/w ([3]; buffer pH 3.0): 28.980 | Apparent lipid-water distribution coefficient LogP ([3]; buffer pH 3.0): 1.462 | Apparent lipid-water distribution coefficient Ko/w ([3]; buffer pH 4.0): 15.224 | Apparent lipid-water distribution coefficient LogP ([3]; buffer pH 4.0): 1.183 | Apparent lipid-water distribution coefficient Ko/w ([3]; buffer pH 5.0): 18.710 | Apparent lipid-water distribution coefficient LogP ([3]; buffer pH 5.0): 1.272 | Apparent lipid-water distribution coefficient Ko/w ([3]; buffer pH 6.0): 19.963 | Apparent lipid-water distribution coefficient LogP ([3]; buffer pH 6.0): 1.300 | Apparent lipid-water distribution coefficient Ko/w ([3]; buffer pH 7.0): 31.436 | Apparent lipid-water distribution coefficient LogP ([3]; buffer pH 7.0): 1.497 | Apparent lipid-water distribution coefficient Ko/w ([3]; buffer pH 7.4): 29.286 | Apparent lipid-water distribution coefficient LogP ([3]; buffer pH 7.4): 1.467 | Apparent lipid-water distribution coefficient Ko/w ([3]; buffer pH 8.0): 28.704 | Apparent lipid-water distribution coefficient LogP ([3]; buffer pH 8.0): 1.458 | Apparent lipid-water distribution coefficient Ko/w ([3]; buffer pH 9.0): 21.872 | Apparent lipid-water distribution coefficient LogP ([3]; buffer pH 9.0): 1.340 | stability [4]: stable properties | duration of stay at the central activity area ([5]; 15, 30, 45 mg/kg): could not be changed | mouse journey ([5]; high-dose 45 mg/kg): could increase mouse journey | duration of stay in the central area (TAU transgenic mice [6]): reduce their duration of stay in the central area | movement ability (journey) (TAU transgenic mice [6]): could enhance transgenic mouse movement ability | low anxiety state [7]: did not change | low-anxiety state (TAU transgenic mice [8]; different doses): the low-anxiety state was changed | low-anxiety state (TAU transgenic mice [8]; high-dose, compared with the animal model group): significant difference | Equilibrium solubility in buffer solution ([2]; pH 2.0): 66.938 µg/mL | Equilibrium solubility in buffer solution ([2]; pH 3.0): 66.334 µg/mL | Equilibrium solubility in buffer solution ([2]; pH 4.0): 195.371 µg/mL | Equilibrium solubility in buffer solution ([2]; pH 5.0): 232.102 µg/mL | Equilibrium solubility in buffer solution ([2]; pH 6.0): 274.629 µg/mL | Equilibrium solubility in buffer solution ([2]; pH 7.0): 318.016 µg/mL | Equilibrium solubility in buffer solution ([2]; pH 7.4): 374.484 µg/mL | Equilibrium solubility in buffer solution ([2]; pH 8.0): 463.902 µg/mL | Equilibrium solubility in buffer solution ([2]; pH 9.0): 512.644 µg/mL | latency in place navigation test ([9]; day 4, dosing group vs model group): no significant difference | latency in place navigation test [9, 16]: significant difference | swimming time percentage in the third quadrant (probe test) ([9]; day 5, platform removed, high-dose group): statistical significance | spatial probing (swimming trajectory, FIG. 11) ([9]; spatial probe test): only the high-dose group could enhance their spatial probing | latency in place navigation test (TAU transgenic mice [10]; day 4, high-dose group vs model group): significant difference | latency in place navigation test (TAU transgenic mice [10]; [16]): significant difference | swimming time percentage in the third quadrant (probe test) (TAU transgenic mice [10]; day 5, platform removed, medium-dose and high-dose group): statistical significance | spatial probing (swimming trajectory, FIG. 11) (TAU transgenic mice [10]; spatial probe test): both the medium- and high-dose groups could improve their spatial probing | movement coordination [11]: could obviously improve the phenomenon

CCCCCCCCCCC[C@@H](C[C@@H]1OC(=O)[C@H]1CCCCCC)OC(=O)[C@H](CC(C)C)NC=O [Orlistat, reference compound]
obese mouse weight (obese mouse model [12]; 100 mg/kg/day, four weeks): can inhibit weight gain in obese mice | appetite (average daily food intake) (obese mouse model [12]; 4-week administration, high-fat diet groups): neither NST-2K nor Orlistat suppressed appetite | perirenal fat percentage quality (obese mouse model [13]; HFD I blank 1.63 ± 0.10): 1.32 ± 0.06 g/100 g weight | Epididymal fat percentage quality (obese mouse model [13]; HFD I blank 2.99 ± 0.08): 2.66 ± 0.07 g/100 g weight | Liver percentage quality (obese mouse model [13]; HFD I blank 3.51 ± 0.07): 3.48 ± 0.06***^ g/100 g weight | size of epididymal fat cells (obese mouse model [14]; HFD III, HFD IV (NST-2K 60, 100 mg/kg/day) and HFD V (Orlistat 100 mg/kg/day) vs HFD I): evidently smaller fat cells than HFD I | fat accumulation in liver tissues (obese mouse model [14]; as the administration dose increased, vs HFD I): the accumulation began to ease

COCCOC(=O)C1=C(C)NC(C)=C(C(=O)OC(C)C)C1c1cccc([N+](=O)[O-])c1 (stereo not drawn) [nimotop, reference compound]
neurobehavioral score [15]: 1.12+/−0.31
